From the NIST ThermoML archive (doi:10.1021/je060222y)
Several values for one entry are separate records, joined by “and”; a condition that tells them apart may be missing. Equal entries are not always repeated. ± gives the expanded uncertainty stated by the source.

What was measured:
[1] = for mass density: 101.33 kPa, Liquid; for Triple point temperature: Crystal
[2] = Molar enthalpy of transition or fusion; conditions: Crystal
[3] = molar heat capacity at constant pressure; conditions: 101.33 kPa, Liquid, Small sample (50 mg) DSC

## CCCCn1cc[n+](C)c1.F[P-](F)(F)(F)(F)F [1-butyl-3-methylimidazolium hexafluorophosphate]
[1]; 283.15 K
  mass density: 1379.14 ± 1.5 kg/m3
[1]; 288.15 K
  mass density: 1374.83 ± 1.4 kg/m3
[1]; 293.15 K
  mass density: 1370.43 ± 1.4 kg/m3
[1]; 298.15 K
  mass density: 1366.12 ± 1.4 kg/m3
[1]; 303.15 K
  mass density: 1361.76 ± 1.4 kg/m3
[1]; 308.15 K
  mass density: 1357.52 ± 1.4 kg/m3
[1]; 313.15 K
  mass density: 1353.35 ± 1.4 kg/m3
[1]; 318.15 K
  mass density: 1349.16 ± 1.4 kg/m3
[1]; 323.15 K
  mass density: 1345.02 ± 1.4 kg/m3
[1]
  Triple point temperature: 280.03 ± 0.77 K
[2]; DSC
  Molar enthalpy of transition or fusion: 4.76 ± 0.139 kcal/mol
[3]; 283.15 K
  molar heat capacity at constant pressure: 400.9 ± 6.2 J/K/mol
[3]; 288.15 K
  molar heat capacity at constant pressure: 402.32 ± 6.2 J/K/mol
[3]; 293.15 K
  molar heat capacity at constant pressure: 404.97 ± 6.3 J/K/mol
[3]; 298.15 K
  molar heat capacity at constant pressure: 407.66 ± 6.3 J/K/mol
[3]; 303.15 K
  molar heat capacity at constant pressure: 410.33 ± 6.4 J/K/mol
[3]; 308.15 K
  molar heat capacity at constant pressure: 413.14 ± 6.4 J/K/mol
[3]; 313.15 K
  molar heat capacity at constant pressure: 415.98 ± 6.4 J/K/mol
[3]; 318.15 K
  molar heat capacity at constant pressure: 418.91 ± 6.5 J/K/mol
[3]; 323.15 K
  molar heat capacity at constant pressure: 421.88 ± 6.5 J/K/mol

## CCCC[n+]1ccn(C)c1.O=S(=O)([N-]S(=O)(=O)C(F)(F)F)C(F)(F)F
[1]; 278.15 K
  mass density: 1454.98 ± 1.7 kg/m3 and 1453.33 ± 1.7 kg/m3
[1]; 283.15 K
  mass density: 1450.16 ± 1.7 kg/m3 and 1448.52 ± 1.7 kg/m3
[1]; 288.15 K
  mass density: 1445.33 ± 1.7 kg/m3 and 1443.69 ± 1.7 kg/m3
[1]; 293.15 K
  mass density: 1440.51 ± 1.7 kg/m3 and 1438.89 ± 1.6 kg/m3
[1]; 298.15 K
  mass density: 1435.73 ± 1.7 kg/m3 and 1434.1 ± 1.6 kg/m3
[1]; 303.15 K
  mass density: 1430.94 ± 1.7 kg/m3 and 1429.31 ± 1.6 kg/m3
[1]; 308.15 K
  mass density: 1426.17 ± 1.6 kg/m3 and 1424.54 ± 1.6 kg/m3
[1]; 313.15 K
  mass density: 1421.4 ± 1.6 kg/m3 and 1419.78 ± 1.6 kg/m3
[1]; 318.15 K
  mass density: 1416.66 ± 1.6 kg/m3 and 1415.04 ± 1.6 kg/m3
[1]; 323.15 K
  mass density: 1411.94 ± 1.6 kg/m3 and 1410.31 ± 1.6 kg/m3
[1]; 328.15 K
  mass density: 1407.23 ± 1.6 kg/m3 and 1405.6 ± 1.6 kg/m3
[1]; 333.15 K
  mass density: 1402.55 ± 1.6 kg/m3 and 1400.92 ± 1.5 kg/m3
[1]
  Triple point temperature: 268.51 ± 0.77 K and 267.61 ± 0.77 K
[2]
  Molar enthalpy of transition or fusion: 5.36 kcal/mol and 5.86 kcal/mol
[3]; 283.15 K
  molar heat capacity at constant pressure: 558.99 ± 8.7 J/K/mol and 559.63 ± 8.7 J/K/mol
[3]; 288.15 K
  molar heat capacity at constant pressure: 561.29 ± 8.7 J/K/mol and 562.05 ± 8.7 J/K/mol
[3]; 293.15 K
  molar heat capacity at constant pressure: 564.02 ± 8.7 J/K/mol and 564.58 ± 8.8 J/K/mol
[3]; 298.15 K
  molar heat capacity at constant pressure: 566.47 ± 8.8 J/K/mol and 567.33 ± 8.8 J/K/mol
[3]; 303.15 K
  molar heat capacity at constant pressure: 569.01 ± 8.8 J/K/mol and 569.74 ± 8.8 J/K/mol
[3]; 308.15 K
  molar heat capacity at constant pressure: 572.11 ± 8.9 J/K/mol and 572.82 ± 8.9 J/K/mol
[3]; 313.15 K
  molar heat capacity at constant pressure: 575.03 ± 8.9 J/K/mol and 575.56 ± 8.9 J/K/mol
[3]; 318.15 K
  molar heat capacity at constant pressure: 577.84 ± 8.9 J/K/mol and 578.49 ± 9 J/K/mol
[3]; 323.15 K
  molar heat capacity at constant pressure: 581.06 ± 9 J/K/mol and 581.68 ± 9 J/K/mol
[3]; 328.15 K
  molar heat capacity at constant pressure: 584.36 ± 9.1 J/K/mol and 584.82 ± 9.1 J/K/mol
